From ChEMBL document CHEMBL3045773, “Synthesis and structureactivity relationship of acylthiourea derivatives as inhibitors of microsomal epoxide hydrolase” (Med Chem Res, 2012) come the findings set out here.

Broadly, the IC50 is the point on the concentration scale where inhibition reaches its midpoint. Low values mean greater potency in that assay, high ones weaker potency in that assay.

The target of this test is T1, Epoxide hydrolase 1 (Homo sapiens, UniProt P07099).
T1 sequence (P07099 whole entry): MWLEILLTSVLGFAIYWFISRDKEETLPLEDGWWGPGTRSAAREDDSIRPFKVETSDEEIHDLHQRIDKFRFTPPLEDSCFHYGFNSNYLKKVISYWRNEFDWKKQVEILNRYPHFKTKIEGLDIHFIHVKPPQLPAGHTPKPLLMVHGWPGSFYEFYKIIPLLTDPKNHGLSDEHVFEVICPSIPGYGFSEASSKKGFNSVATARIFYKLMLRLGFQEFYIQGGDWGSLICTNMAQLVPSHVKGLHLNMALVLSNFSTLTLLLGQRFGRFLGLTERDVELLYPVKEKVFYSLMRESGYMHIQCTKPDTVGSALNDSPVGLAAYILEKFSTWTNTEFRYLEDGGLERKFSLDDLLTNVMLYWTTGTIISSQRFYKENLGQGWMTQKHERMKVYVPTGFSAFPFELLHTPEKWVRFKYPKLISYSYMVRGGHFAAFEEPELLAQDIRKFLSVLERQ
Kind of test: Inhibition of microsomal epoxide hydrolase (unknown origin) using 7-(2-(Oxiran-2-yl)ethoxy) Resorufin by fluorometric method.
Take `O=C(NC(=S)Nc1ccc(Br)cc1)c1ccccc1`: the 50% inhibitory concentration (IC50) came out at 3440 nM.
As for `O=C(NC(=S)Nc1cc(Cl)ccc1Cl)c1ccccc1`, the figure is 2150 nM; as for `O=C(NC(=S)Nc1ccc(Br)c(C(F)(F)F)c1)c1ccccc1`, 1170 nM.
As for `O=C(NC(=S)NC12CC3CC(CC(C3)C1)C2)c1ccccc1`, the figure is 1010 nM.
The molecule `COc1cc(C)ccc1NC(=S)NC(C)=O` had a concentration for half-maximal inhibition (IC50) of 1690 nM.
Under `CC(=O)NC(=S)Nc1ccc(Oc2ccccc2)cc1` stands 3700 nM; under `CC(=O)NC(=S)Nc1cc(Cl)ccc1Cl`, 2290 nM.
As for `CCOc1ccc(OCC)c(NC(=S)NC(C)=O)c1`, the figure is 2530 nM.
Under `CC(=O)NC(=S)Nc1ccc(N2CCOCC2)cc1` stands 2590 nM; under `O=C(NC(=S)Nc1ccncc1)c1ccccc1`, 2280 nM; under `O=C(NC(=S)Nc1ccc(Cl)cc1)c1ccccc1`, 1640 nM.
`COc1cc([N+](=O)[O-])ccc1NC(=S)NC(=O)c1ccccc1`: the IC50 came to 1650 nM.
Turning to `CC(=O)NC(=S)Nc1ccc(Cl)cc1`, the IC50 came to 2210 nM.
For the molecule `CC(=O)NC(=S)Nc1ccccc1C`, the IC50 is 1500 nM.
As for `Cc1ccccc1NC(=S)NC(=O)c1ccccc1`, the figure is 3540 nM; as for `O=C(Nc1ccccc1)Nc1ccccc1`, 1200 nM; as for `O=C(NC(=S)Nc1ccc(N2CCOCC2)cc1)c1ccccc1`, 1720 nM.
As for `CC(=O)NC(=S)Nc1ccc(Br)cc1`, the figure is 1640 nM.
With `COc1cc([N+](=O)[O-])ccc1NC(=S)NC(C)=O`, the IC50 was found to be 1870 nM.
Take `CC(=O)NC(=S)NC(C)(C)C`: the IC50 was found to be 2700 nM.
Under `CC(=O)NC(=S)Nc1ccc(Br)c2ccccc12` stands 2420 nM; under `O=C(NC(=S)Nc1ccccc1)c1ccccc1` [N-(PHENYLCARBAMOTHIOYL)BENZAMIDE], 1290 nM; under `CC(=O)NC(=S)Nc1ccncc1`, 2070 nM.
Under `CCOc1ccc(OCC)c(NC(=S)NC(=O)c2ccccc2)c1` stands 2040 nM.
Under `CC(=O)NC(=S)Nc1ccc(Br)c(C(F)(F)F)c1` stands 1390 nM; under `O=C(NC(=S)Nc1ccc(Oc2ccccc2)cc1)c1ccccc1`, 2100 nM; under `CC(=O)NC(=S)Nc1ccccc1` [N-(PHENYLCARBAMOTHIOYL)ACETAMIDE], 2350 nM.
Molecule `COc1cc(C)ccc1NC(=S)NC(=O)c1ccccc1` gave an IC50 of 2540 nM.
`CC(C)(C)NC(=S)NC(=O)c1ccccc1` displayed an IC50 of 1580 nM.
`O=C(NC(=S)Nc1ccc(Br)c2ccccc12)c1ccccc1` gave an IC50 of 1880 nM.
As for `CC(=O)NC(=S)NC12CC3CC(CC(C3)C1)C2`, the figure is 1120 nM.
